Reference: patent US10259808B2 (Genentech, Inc., priority 2015, dated 2019)

biological target: T1, RORc ligand binding domain (Homo sapiens, UniProt P51449); assay: In vitro RORc ligand binding assay (25-[3H]hydroxycholesterol displacement); details: not given
T1 sequence (P51449 269-508 limits assumed): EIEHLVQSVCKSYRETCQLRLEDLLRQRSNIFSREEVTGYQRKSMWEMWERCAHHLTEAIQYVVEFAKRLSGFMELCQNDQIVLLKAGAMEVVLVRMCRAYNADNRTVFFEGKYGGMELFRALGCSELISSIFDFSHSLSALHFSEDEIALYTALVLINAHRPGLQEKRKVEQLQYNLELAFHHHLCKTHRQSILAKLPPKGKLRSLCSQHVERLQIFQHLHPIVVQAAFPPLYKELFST

COc1cc([C@]2(c3cc(F)c(CN4[C@@H](C)CC[C@H](c5ccccc5)S4(=O)=O)cc3F)C[C@@](C)(O)C2)on1 [Example 162, 3-[2,5-difluoro-4-[[(3S,6R)-3-methyl-1,1-dioxo-6-phenyl-thiazinan-2-yl]methyl]phenyl]-3-(3-methoxyisoxazol-5-yl)-1-methyl-cyclobutanol] and C[C@H]1CC[C@H](c2ccccc2)S(=O)(=O)N1Cc1cc(F)c([C@]2(c3cc(=O)n(C)o3)C[C@](C)(O)C2)cc1F [Example 161, 5-[1-[2,5-difluoro-4-[[(3S,6R)-3-methyl-1,1-dioxo-6-phenyl-thiazinan-2-yl]methyl]phenyl]-3-hydroxy-3-methyl-cyclobutyl]-2-methyl-isoxazol-3-one] are within 1.5-fold of each other in IC50: 3.6 nM for the first, 5.2 nM for the second.

Compared with C[C@H]1CC[C@H](c2ccccc2)S(=O)(=O)N1Cc1ccc(C2(NCc3ncc[nH]3)CCOCC2)cc1F [Example 64, 4-[3-fluoro-4-[[(3S,6R)-3-methyl-1,1-dioxo-6-phenyl-thiazinan-2-yl]methyl]phenyl]-N-(1H-imidazol-2-ylmethyl)tetrahydropyran-4-amine], C[C@H]1CC[C@H](c2ccccc2)S(=O)(=O)N1Cc1ccc(C2(NCc3cc[nH]n3)CCOCC2)cc1F [Example 63, 4-[3-fluoro-4-[[(3S,6R)-3-methyl-1,1-dioxo-6-phenyl-thiazinan-2-yl]methyl]phenyl]-N-(1H-pyrazol-3-ylmethyl)tetrahydropyran-4-amine] is 1.5-fold lower in IC50: 10.1 nM for the first, 6.7 nM for the second. The second is the more potent here.

C[C@H]1CC[C@H](c2ccccc2)S(=O)(=O)N1Cc1cc(F)c(C2(c3nnc[nH]3)CC(F)(F)C2)cc1F [Example 114, (3S,6R)-2-[[4-[3,3-difluoro-1-(4H-1,2,4-triazol-3-yl)cyclobutyl]-2,5-difluoro-phenyl]methyl]-3-methyl-6-phenyl-thiazinane 1,1-dioxide] and C[C@H]1CC[C@H](c2ccccc2)S(=O)(=O)N1Cc1cc(F)c(C2(OCc3nnc[nH]3)CC3(COC3)C2)cc1F [Example 122, (3S,6R)-2-[[2,5-difluoro-4-[6-(4H-1,2,4-triazol-3-ylmethoxy)-2-oxaspiro[3.3]heptan-6-yl]phenyl]methyl]-3-methyl-6-phenyl-thiazinane 1,1-dioxide] are within 1.5-fold of each other in IC50: 3.6 nM for the first, 2.7 nM for the second.

First: C[C@H]1CC[C@H](c2ccccc2)S(=O)(=O)N1Cc1cc(F)c(C2(NC(=O)Cc3ccon3)COC2)cc1F [Example 94, N-[3-[2,5-difluoro-4-[[(3S,6R)-3-methyl-1,1-dioxo-6-phenyl-thiazinan-2-yl]methyl]phenyl]oxetan-3-yl]-2-isoxazol-3-yl-acetamide]
Second: Cc1n[nH]cc1C(=O)NC1(c2cc(F)c(CN3[C@@H](C)CC[C@H](c4ccccc4)S3(=O)=O)cc2F)COC1 (stereo in doubt) [Example 130, N-[3-[2,5-difluoro-4-[[(3S,6R)-3-methyl-1,1-dioxo-6-phenyl-thiazinan-2-yl]methyl]phenyl]oxetan-3-yl]-3-methyl-1H-pyrazole-4-carboxamide]
The IC50 of the first is 7-fold lower: 17.9 nM for the first, 126 nM for the second.

Going from C[C@H]1CC[C@H](c2ccccc2)S(=O)(=O)N1Cc1cc(F)c([C@]2(c3n[nH]c(=O)o3)C[C@](C)(O)C2)cc1F [Example 128, trans-5-[1-[2,5-difluoro-4-[[(3S,6R)-3-methyl-1,1-dioxo-6-phenyl-thiazinan-2-yl]methyl]phenyl]-3-hydroxy-3-methyl-cyclobutyl]-3H-1,3,4-oxadiazol-2-one] to C[C@H]1CC[C@H](c2ccccc2)S(=O)(=O)N1Cc1cc(F)c([C@]2(c3n[nH]c(=O)o3)C[C@@](O)(CC#N)C2)cc1F (racemic) [Example 176, 2-[3-[2,5-difluoro-4-[[rac-(3S,6R)-3-methyl-1,1-dioxo-6-phenyl-thiazinan-2-yl]methyl]phenyl]-1-hydroxy-3-(2-oxo-3H-1,3,4-oxadiazol-5-yl)cyclobutyl]acetonitrile], the IC50 rises from 3.4 nM to 5.4 nM (1.6-fold). The first is the more potent here.

Going from C[C@H]1CC[C@H](c2ccccc2)S(=O)(=O)N1Cc1ccc(C2(OCc3nnc[nH]3)COC2)cc1F [Example 59, (3S,6R)-2-[[2-fluoro-4-[3-(4H-1,2,4-triazol-3-ylmethoxy)oxetan-3-yl]phenyl]methyl]-3-methyl-6-phenyl-thiazinane 1,1-dioxide] to C[C@H]1CC[C@H](c2ccccc2)S(=O)(=O)N1Cc1ccc(C2(N(C)Cc3nnc[nH]3)CCOCC2)cc1F [Example 79, 4-[3-fluoro-4-[[(3S,6R)-3-methyl-1,1-dioxo-6-phenyl-thiazinan-2-yl]methyl]phenyl]-N-methyl-N-(4H-1,2,4-triazol-3-ylmethyl)tetrahydropyran-4-amine], the IC50 rises from 23.2 nM to 77.1 nM (3.3-fold). The first is the more potent here.

Compared with C[C@H]1CC[C@H](c2ccccc2)S(=O)(=O)N1Cc1cc(F)c([C@]2(c3n[nH]c(=O)o3)C[C@@H](O)C2)cc1F [Example 124, cis-5-[1-[2,5-difluoro-4-[[(3S,6R)-3-methyl-1,1-dioxo-6-phenyl-thiazinan-2-yl]methyl]phenyl]-3-hydroxy-cyclobutyl]-3H-1,3,4-oxadiazol-2-one], C[C@H]1CC[C@H](c2ccccc2)S(=O)(=O)N1Cc1cc(F)c(C2(c3n[nH]c(=O)o3)CCOCC2)cc1F [Example 58, 5-[4-[2,5-difluoro-4-[[(3S,6R)-3-methyl-1,1-dioxo-6-phenyl-thiazinan-2-yl]methyl]phenyl]tetrahydropyran-4-yl]-3H-1,3,4-oxadiazol-2-one] is 3.1-fold higher in IC50: 2.1 nM for the first, 6.6 nM for the second. The first is the more potent here.

First: C[C@H]1CC[C@H](c2ccccc2)S(=O)(=O)N1Cc1cc(F)c(C2(c3ncn(CCO)n3)CCOCC2)cc1F [Example 54, 2-[3-[4-[2,5-difluoro-4-[[(3S,6R)-3-methyl-1,1-dioxo-6-phenyl-thiazinan-2-yl]methyl]phenyl]tetrahydropyran-4-yl]-1,2,4-triazol-1-yl]ethanol]
Second: C[C@H]1CC[C@H](c2ccccc2)S(=O)(=O)N1Cc1cc(F)c(C2(c3ncn(CC(N)=O)n3)CCOCC2)cc1F [Example 53, 2-[3-[4-[2,5-difluoro-4-[[(3S,6R)-3-methyl-1,1-dioxo-6-phenyl-thiazinan-2-yl]methyl]phenyl]tetrahydropyran-4-yl]-1,2,4-triazol-1-yl]acetamide]
The IC50 of the first is 1.8-fold lower: 57 nM for the first, 103 nM for the second. The first is the more potent here.

Going from C[C@H]1CC[C@H](c2ccccc2)S(=O)(=O)N1Cc1cc(F)c(C2(NCc3ncco3)CCOCC2)cc1F [Example 83, 4-[2,5-difluoro-4-[[(3S,6R)-3-methyl-1,1-dioxo-6-phenyl-thiazinan-2-yl]methyl]phenyl]-N-(oxazol-2-ylmethyl)tetrahydropyran-4-amine] to C[C@H]1CC[C@H](c2ccccc2)S(=O)(=O)N1Cc1cc(F)c(C2(NCc3cocn3)CCOCC2)cc1F [Example 75, 4-[2,5-difluoro-4-[[(3S,6R)-3-methyl-1,1-dioxo-6-phenyl-thiazinan-2-yl]methyl]phenyl]-N-(oxazol-4-ylmethyl)tetrahydropyran-4-amine], the IC50 rises from 3.7 nM to 6.4 nM (1.7-fold).

First: COC1(OC)CC(c2n[nH]c(=O)o2)(c2cc(F)c(CN3[C@@H](C)CC[C@H](c4ccccc4)S3(=O)=O)cc2F)C1 [Example 120, 5-[1-[2,5-difluoro-4-[[(3S,6R)-3-methyl-1,1-dioxo-6-phenyl-thiazinan-2-yl]methyl]phenyl]-3,3-dimethoxy-cyclobutyl]-3H-1,3,4-oxadiazol-2-one]
Second: Cc1[nH]c(=O)oc1[C@]1(c2cc(F)c(CN3[C@@H](C)CC[C@H](c4ccccc4)S3(=O)=O)cc2F)C[C@@](C)(O)C1 [Example 160, 5-[1-[2,5-difluoro-4-[[(3S,6R)-3-methyl-1,1-dioxo-6-phenyl-thiazinan-2-yl]methyl]phenyl]-3-hydroxy-3-methyl-cyclobutyl]-4-methyl-3H-oxazol-2-one]
The IC50 of the first is 2.4-fold lower: 5.7 nM for the first, 13.6 nM for the second.

Compared with C[C@H]1CC[C@H](c2ccccc2)S(=O)(=O)N1Cc1ccc(C2(n3cnnc3)CCOCC2)cc1F [Example 45, (3S,6R)-2-[[2-fluoro-4-[4-(1,2,4-triazol-4-yl)tetrahydropyran-4-yl]phenyl]methyl]-3-methyl-6-phenyl-thiazinane 1,1-dioxide], Cc1cc(N)nn1C(=O)C1(c2ccc(CN3[C@@H](C)CC[C@H](c4ccccc4)S3(=O)=O)c(F)c2)CCOCC1 [Example 21, (3-amino-5-methyl-pyrazol-1-yl)-[4-[3-fluoro-4-[[(3S,6R)-3-methyl-1,1-dioxo-6-phenyl-thiazinan-2-yl]methyl]phenyl]tetrahydropyran-4-yl]methanone] is 46-fold lower in IC50: 87.7 nM for the first, 1.9 nM for the second. The second is the more potent here.

Going from CCn1nccc1NC(=O)C1(c2ccc(CN3[C@@H](C)CC[C@H](c4ccccc4)S3(=O)=O)c(F)c2)CCOCC1 [Example 13] to C[C@H]1CC[C@H](c2ccccc2)S(=O)(=O)N1Cc1ccc(C2(C(=O)NCC3CCOC3)CCOCC2)cc1F (stereo partly drawn) [Example 11], the IC50 rises from 63.2 nM to 161 nM (2.5-fold). The first is the more potent here.

Going from C[C@H]1CC[C@H](c2ccccc2)S(=O)(=O)N1Cc1cc(F)c(C2(NC(=O)C3CCOC3)COC2)cc1F (stereo in doubt) [Example 129, N-[3-[2,5-difluoro-4-[[(3S,6R)-3-methyl-1,1-dioxo-6-phenyl-thiazinan-2-yl]methyl]phenyl]oxetan-3-yl]tetrahydrofuran-3-carboxamide] to C[C@H]1CC[C@H](c2ccccc2)S(=O)(=O)N1Cc1ccc(C2(c3nnc(CO)o3)CCOCC2)cc1F [Example 44, [5-[4-[3-fluoro-4-[[(3S,6R)-3-methyl-1,1-dioxo-6-phenyl-thiazinan-2-yl]methyl]phenyl]tetrahydropyran-4-yl]-1,3,4-oxadiazol-2-yl]methanol], the IC50 rises from 32.3 nM to 102 nM (3.2-fold). The first is the more potent here.

same assay, conditions: IC50 values for RORc

C[C@H]1CC[C@H](c2ccccc2)S(=O)(=O)N1Cc1cc(F)c(C2(c3c[nH]c(=O)o3)CC(O)C2)cc1F (mixture of isomers) [Example 177, 5-[1-[2,5-difluoro-4-[[rac-(3S,6R)-3-methyl-1,1-dioxo-6-phenyl-thiazinan-2-yl]methyl]phenyl]-3-hydroxy-cyclobutyl]-3H-oxazol-2-one] showed an IC50 of 4.3 nM.
